The subject of assay [1] is Clostridium difficile (strain VPI 10463 (ATCC-43255)). Briefly: Mouse model of Clostridium difficile infection: disease-associated phenotypes. It counts as in vivo, mice (female C57BL/6). The protocol:
This experiment was conducted to analyze the effects of glycan therapeutics in a mouse model of Clostridium difficile infection (Chen et al, 2008, A Mouse Model of Clostridium difficile—Associated Disease. Gastroenterology 135(6), 1984-1992). In this model, normal mice were exposed to an antibiotic regimen that renders them susceptible to C. difficile infection and disease symptoms, similar with respect to their development and manifestation of human clinical disease. In humans, the disease is most often the result of exposure to broad spectrum antibiotics which is thought to result in intestinal dysbiosis and subsequent increased colonic colonization with C. difficile. The increased bio-burden of C. difficile leads to toxin production by the bacterium and colonic inflammation. Clinical manifestations in humans include diarrhea, weight loss, intestinal inflammation, fever and dehydration. The clinical incidence of C. difficile infection and disease is about 750,000 cases per year in the US.
(§1) Mice (female C57BL/6, 8-10 weeks old, 16-18 grams each; Harlan Laboratories, Indianapolis, Ind.) were housed in groups of 3 per cage, with 4 cages per treatment group. Mice were exposed to a cocktail of antibiotics in their drinking water for a period of 9 days, starting on day −14, fourteen days before Clostridium difficile challenge on day 0. The antibiotic cocktail consisted of 1% glucose, kanamycin (0.5 mg/ml), gentamicin (0.044 mg/ml), colistin (1062.5 U/ml), metronidazole (0.269 mg/ml), ciprofloxacin (0.156 mg/ml), ampicillin (0.1 mg/ml) and vancomycin (0.056 mg/ml). Three days prior to Clostridium difficile challenge (on Day −3), mice received a single dose of clindamycin (10 mg/kg) in a volume of 0.5 mL distilled water by oral gavage (PO) (see Table 10). All chemicals were purchased from Sigma-Aldrich Corp. (St. Louis, Mo.). On day 0, mice were challenged with Clostridium difficile (strain VPI 10463 (ATCC-43255)) spores at approximately 4.5 log10 spores per mouse, PO, in a dose volume of 0.5 mL distilled water.
Disease-associated phenotypes were recorded for a duration of ten days starting on the day of Clostridium difficile challenge (on day 0) through day 10. The phenotypes, including lethargy, hunched posture and ruffled coat, wet tail/abdomen and hypothermia were scored from 0 to 4: Normal=0; Lethargic=1; Lethargic+Hunched=2; Lethargic+Hunched+Wet tail/abdomen (diarrhea)=3; and Lethargic+Hunched+Wet tail/abdomen+Hypothermic=4. Death (day 0 to day 10 or 11) and weight (day 1 to day 7 and day 10) of the animals was also monitored and recorded.
A treatment's ability to protect animals from death through day 6 in these experiments indicates disease prevention, e.g., in a human.
Effects of treatments was assessed by comparing the disease-associated phenotypes in glycan-treated, untreated (plain water) and vancomycin-treated groups. FOS is a commercially-available, non-digestible fructooligosaccharide.

Assay [2] deals with gut microbiota. Briefly: Mouse model of Clostridium difficile infection: shifts in microbial gut constituents (16S rRNA). It counts as in vivo, mice (female C57BL/6). Particulars: Day 6, FIG. 13; predicted from 16S rRNA sequencing using PICRUST. The protocol: as §1
To determine how the gut microbiota composition responds to treatment with glycan therapeutics, 16S rRNA sequencing of fecal pellets on the V4 variable region using standard protocols from the Earth Microbiome Project was performed (www.earthmicrobiome.org/emp-standard-protocols/). […]

[3] abbreviates: vancomycin PO gavage QD days 0 to 4.

Regarding `CN[C@H](CC(C)C)C(=O)N[C@H]1C(=O)N[C@@H](CC(N)=O)C(=O)N[C@H]2C(=O)N[C@H]3C(=O)N[C@H](C(=O)N[C@H](C(=O)O)c4cc(O)cc(O)c4-c4cc3ccc4O)[C@H](O)c3ccc(c(Cl)c3)Oc3cc2cc(c3O[C@@H]2O[C@H](CO)[C@@H](O)[C@H](O)[C@H]2O[C@H]2C[C@](C)(N)[C@H](O)[C@H](C)O2)Oc2ccc(cc2Cl)[C@H]1O` [Vancomycin, vancomycin], the “animal survival versus animals treated with water (vehicle)” value in assay [1] (Kaplan-Meier, FIG. 10) was “significant difference”. Further, the “clinical score of survivors” value in assay [1] (score 0 to 4, after end of treatment, days 7 to 10/11) is on record as “above 0”. In assay [1] (setting [3]), the “animals died by day 10” value is 17%, the “animals survived to day 7” value came to 100% and the “clinical signs on day 10” value is listed as “exhibited clinical signs”. Also, the “predicted functional potential of the gut microbiome to convert primary bile acids to secondary bile acids” value in assay [2] is given as “not observed”.

Values taken from patent US10702542B2, “Glycan therapeutics and related methods thereof” (priority 2015, dated 2020).
